Legend:
[1] = test system: Colo205 human colonic adenocarcinoma cell line (doxorubicin-sensitive); test: MTT cytotoxicity assay on Colo205 cells; type: cell-based
Protocol: The cytotoxic activity of selected halido (1–4Cl, and 3Br with chlorido and bromido coligand, respectively) and aqua (1–4Aq) complexes was evaluated in the drug-sensitive Colo205 and its resistant counterpart Colo320 human colonic adenocarcinoma cell lines using the colorimetric 3-(4,5-dimethylthiazol-2-yl)-2,5-diphenyl-tetrazolium bromide (MTT) assay. For comparison, fac-[Re(CO)3(bpy)(Cl)] (in which bpy denotes 2,2′-bipyridine) was also tested, and doxorubicin was used as a positive control. […] The aqua complexes (1–4Aq) were characterized by even higher IC50 values (>100 μM). The somewhat higher cytotoxic activity of the halido complexes might be the result of their kinetic inertness compared to aqua derivatives, based on the previous solution chemical studies. […]
(§1) The tested compounds were dissolved in DMSO or 20% (v/v) DMSO/H2O mixture to prepare 5 mM stock solutions, which were diluted in complete culture medium, to study the effect of compounds on the cell growth of human colonic adenocarcinoma cell lines (doxorubicin-sensitive Colo205 and resistant Colo320 colonic adenocarcinoma cells). […] Cell growth was determined by measuring the optical density (OD) at 540/630 nm with a Multiscan EX ELISA reader (Thermo Labsystems, Cheshire, WA, USA). […]

[2] = test system: Colo320/MDR-LRP resistant human colonic adenocarcinoma cell line; test: MTT cytotoxicity assay on Colo320 cells; type: cell-based; settings: for IC50: MTT, incubation time 72 h
Protocol: The cytotoxic activity of selected halido (1–4Cl, and 3Br with chlorido and bromido coligand, respectively) and aqua (1–4Aq) complexes was evaluated in the drug-sensitive Colo205 and its resistant counterpart Colo320 human colonic adenocarcinoma cell lines using the colorimetric 3-(4,5-dimethylthiazol-2-yl)-2,5-diphenyl-tetrazolium bromide (MTT) assay. For comparison, fac-[Re(CO)3(bpy)(Cl)] (in which bpy denotes 2,2′-bipyridine) was also tested, and doxorubicin was used as a positive control. […] The aqua complexes (1–4Aq) were characterized by even higher IC50 values (>100 μM). The somewhat higher cytotoxic activity of the halido complexes might be the result of their kinetic inertness compared to aqua derivatives, based on the previous solution chemical studies.
Doxorubicin-sensitive Colo205 (ATCC-CCL-222) and ABCB1 (MDR1)-LRP-expressing resistant Colo320/MDR-LRP (ATCC-CCL-220.1) human colonic adenocarcinoma cell lines were purchased from LGC Promochem (Teddington, UK). The cells were cultured in RPMI 1640 medium supplemented with 10% heat-inactivated fetal bovine serum, 2 mM L-glutamine, 1 mM Na-pyruvate, and 10 mM 4-(2-hydroxyethyl)-1-piperazineethanesulfonic acid (HEPES, Sigma, Steinheim, Germany). Cell lines were incubated at 37 °C in a 5% CO2, 95% air atmosphere. The semiadherent human colon cancer cells were detached with Trypsin-Versene (EDTA, Sigma, Steinheim, Germany) solution for 5 min at 37 °C.
as §1, with “cells). Doxorubicin (Merck, Darmstadt, Germany) was used as a positive control. The cells were treated with Trypsin-Versene (EDTA) solution.” for “cells).”

Vero cells = test: MTT assay on Vero cells, maximum non-toxic concentration; type: cell-based, African green monkey; settings: incubation 24 h
Protocol: Selected compounds (1–4Aq, 1–4Cl, and 3Br) and the reference complex fac-[Re(CO)3(bpy)(Cl)] were tested for their antiviral activity against Herpes simplex virus 2 (HSV-2), which is a double-stranded DNA virus that infects mammals, including humans.[29] The antiviral activity of complexes against HSV-2 was investigated by using Vero cells (originally isolated from kidney epithelial cells of an African green monkey) to host the growing viruses.
Vero cells (ATCC) were placed into the 96-well plate (Sarstedt, Nümbrecht, Germany) at a density of 4 × 10^6 cells/plate. The cells at a density of 4 × 10^4 cells per well were in 100 μL of minimal essential medium (MEM) (Sigma; USA) with Earle salts supplemented with 25 μg/mL gentamicin, 10% heat-inactivated fetal bovine serum (FBS) (Gibco; Germany), 8 mM HEPES, 2 mM L-glutamine, 1× nonessential amino acids, and 1 μg/mL fungisone. The cells were incubated for 60 min at room temperature (RT) to avoid the edge effect and then for 24 h at 37 °C, 5% CO2 that secure a 90% confluent cell layer.[44]
MTT assay was used to determine the maximum non-toxic concentration of the complexes on Vero cells. […] Next day the absorbance of the wells was determined by a microtiter plate reader (Labsystems Multiskan Ex 355, Thermo Fisher Scientific, Waltham, MA USA). The absorbance of the formazan product was measured at 540 nm.[45]

SMILES	IC50 ([1]; Homo sapiens, COLO 205, incubation time 72 h) [µM]	IC50 ([2]; Homo sapiens, COLO 320) [µM]	IC50 ([1]; incubation time 72 h) [µM]	maximum nontoxic concentration (Vero cells) [µM]	RF (resistance factor = IC50(Colo320)/IC50(Colo205)) ([2]; 72 h)	IC50 [2] [µM]
COc1cccc2c1C(=O)c1c(O)c3c(c(O)c1C2=O)C[C@@](O)(C(=O)CO)C[C@@H]3O[C@H]1C[C@H](N)[C@H](O)[C@H](C)O1 [doxorubicin, reference compound]	0.58 ± 0.06	3.13 ± 0.29				
[C-]#[O+].[C-]#[O+].[C-]#[O+].[Cl][Re-2]1[n+]2ccccc2-c2cccc[n+]21 [fac-[Re(CO)3(bpy)(Cl)], reference compound]			25.2 ± 1.1	25	1.95	49.1 ± 1.7

— article PMC11541514, “Structural and Solution Speciation Studies on fac-Tricarbonylrhenium(I) Complexes of 2,2′-Bipyridine Analogues” (ACS Omega, 2024)
